{"source": "patent US20150157742A1", "about": "“[…] OF BIOLOGICAL COMPOUNDS LABELED WITH THE ALPHA EMITTER Ac-225” (priority 2013, published 2015)", "tested_on": "K422 lymphoma cells", "experiment": "Saturation binding assay (Scatchard analysis) on K422 lymphoma cells", "conditions": "Scatchard analysis (FIG. 3), read-out: binding affinity", "text": "Vos: “In vitro and in vivo evaluation of direct rhenium-188-labeled anti-CD52 monoclonal antibody alemtuzumab for radioimmunotherapy of B-cell chronic lymphocytic leukemia.” (Nuclear Medicine and Biology 35 (2008) 599-604)]."}
{"substance": "Ac-225-DOTA-rituximab", "values": [{"measurement": "Kd", "value": 30, "unit": "nM"}]}
